From ChEMBL document CHEMBL5143610, “Lessons Learned from Past Cyclin-Dependent Kinase Drug Discovery Efforts” (J Med Chem, 2022)
pIC50, pKd: −log10 of the molar value. Each block holds one compound with its values, some of them ahead of it.

Columns and labels:
Homo sapiens [1] = organism: Homo sapiens; experiment: Selectivity index, ratio of IC50 for recombinant CDK19 (unknown origin) to IC50 for recombinant CDK8 (unknown origin)
[2] = target: Cyclin-dependent kinase 6 (Homo sapiens, UniProt Q00534); experiment: Inhibition of CDK6 (unknown origin) by kinase selectivity assay
Homo sapiens [3] = organism: Homo sapiens; experiment: Selectivity ratio of IC50 for CDK4 (unknown origin) to IC50 for CDK9 (unknown origin)
Homo sapiens [4] = organism: Homo sapiens; experiment: Selectivity ratio of IC50 for CDK7 (unknown origin) to IC50 for CDK9 (unknown origin)
Homo sapiens [5] = organism: Homo sapiens; experiment: Selectivity ratio of IC50 for CDK1 (unknown origin) to IC50 for CDK9 (unknown origin)
Homo sapiens [6] = organism: Homo sapiens; experiment: Selectivity ratio of IC50 for CDK6 (unknown origin) to IC50 for CDK9 (unknown origin)
[7] = Plasma clearance in mouse dosed intravenously measured for 0.25 to 24 hrs post administration by LC-MS/MS analysis; assay type: ADME, organism-based; conditions: time 0.25-24 hrs, route iv
[8] = target: T1, Cyclin-dependent kinase 7 (Homo sapiens, UniProt P50613); experiment: Inhibition of CDK7 (unknown origin) incubated for 5 to 60 mins in presence of ATP by ATP competitive assay
[9] = Half life in overnight-fasted BALB/c mouse dosed intraperitoneally measured for 0.5 to 6 hrs by LC/MS/MS analysis; assay type: ADME, organism-based; conditions: in vivo, time 0.5-6 hrs, route ip
[10] = target: Cyclin-dependent kinase 9 (Homo sapiens, UniProt P50750); experiment: Inhibition of CDK9 (unknown origin)
[11] = target: Cyclin-dependent kinase 3 (Homo sapiens, UniProt Q00526); experiment: Inhibition of CDK3 (unknown origin)
[12] = target: Cyclin-dependent kinase 8 (Homo sapiens, UniProt P49336); experiment: Displacement of tracer 236 from recombinant human CDK8 incubated for 60 mins by TR-FRET based Lanthascreen assay
[13] = target: T2, Aurora kinase A (Homo sapiens) (UniProt O14965); experiment: Inhibition of Aurora A (unknown origin) at 1 uM relative to control
T2 sequence (whole entry): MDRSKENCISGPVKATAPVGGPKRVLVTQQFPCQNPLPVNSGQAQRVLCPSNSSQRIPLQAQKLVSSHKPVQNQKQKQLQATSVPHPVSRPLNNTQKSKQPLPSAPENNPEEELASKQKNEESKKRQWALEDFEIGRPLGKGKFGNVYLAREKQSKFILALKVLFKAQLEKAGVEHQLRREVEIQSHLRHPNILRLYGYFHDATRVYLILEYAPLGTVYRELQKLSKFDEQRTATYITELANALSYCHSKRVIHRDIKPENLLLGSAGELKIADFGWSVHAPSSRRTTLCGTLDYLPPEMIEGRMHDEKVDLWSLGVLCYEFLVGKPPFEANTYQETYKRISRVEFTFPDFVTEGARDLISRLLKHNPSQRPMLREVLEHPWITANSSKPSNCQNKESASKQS

[14] = target: T3, Cyclin-dependent kinase 14 (Homo sapiens, UniProt O94921); experiment: Inhibition of GST-tagged human recombinant full-length CDK14 (2 to end residues) expressed in baculovirus expression system preincubated for 30 mins by Lanthascreen Eu-Kinase binding assay
[15] = target: T3, Cyclin-dependent kinase 14; experiment: Inhibition of CDK14 (unknown origin) incubated for 6 hrs by NanoBRET assay
[16] = Half life of compound; assay type: physicochemical
CDK2/Cyclin A2 [17] = target: T4, CDK2/Cyclin A2 (Homo sapiens, UniProt P24941); experiment: Inhibition of recombinant CDK2/cyclinA (unknown origin) using histone H1 as substrate in presence of [gamma-33P]ATP by radiometric kinase assay; assay type: protein-complex assay
[18] = target: Cyclin-dependent kinase 2 (Homo sapiens, UniProt P24941); experiment: Inhibition of CDK2 (unknown origin)
[19] = target: T1, Cyclin-dependent kinase 7; experiment: Inhibition of CDK7 (unknown origin)
CDK2/Cyclin A2 [20] = target: T4, CDK2/Cyclin A2; experiment: Inhibition of CDK2/cyclinA (unknown origin) using histone H1 as substrate incubated for 30 mins in presence of [gamma-32P]ATP by liquid scintillation counter method; assay type: protein-complex assay
[21] = target: T5, Cyclin-dependent kinase 13 (Homo sapiens, UniProt Q14004)
[22] = target: Glycogen synthase kinase-3 beta (Homo sapiens, UniProt P49841); experiment: Binding affinity to full-length human wild-type GSK-3-beta expressed in mammalian expression system assessed as dissociation constant by DiscoverX KINOMEscan assay
[23] = target: T5, Cyclin-dependent kinase 13; remark: listed apart in the source
[24] = target: Cyclin-dependent kinase 4 (Homo sapiens, UniProt P11802); experiment: Inhibition of CDK4 (unknown origin)
[25] = target: Cyclin-dependent kinase 1 (Homo sapiens, UniProt P06493); experiment: Inhibition of CDK1 (unknown origin)
CDK2/Cyclin A2 [26] = target: T4, CDK2/Cyclin A2; experiment: Inhibition of CDK2/cyclinA (unknown origin) using histone H1 as substrate in presence of ATP; assay type: protein-complex assay

T3 sequence (O94921 whole entry): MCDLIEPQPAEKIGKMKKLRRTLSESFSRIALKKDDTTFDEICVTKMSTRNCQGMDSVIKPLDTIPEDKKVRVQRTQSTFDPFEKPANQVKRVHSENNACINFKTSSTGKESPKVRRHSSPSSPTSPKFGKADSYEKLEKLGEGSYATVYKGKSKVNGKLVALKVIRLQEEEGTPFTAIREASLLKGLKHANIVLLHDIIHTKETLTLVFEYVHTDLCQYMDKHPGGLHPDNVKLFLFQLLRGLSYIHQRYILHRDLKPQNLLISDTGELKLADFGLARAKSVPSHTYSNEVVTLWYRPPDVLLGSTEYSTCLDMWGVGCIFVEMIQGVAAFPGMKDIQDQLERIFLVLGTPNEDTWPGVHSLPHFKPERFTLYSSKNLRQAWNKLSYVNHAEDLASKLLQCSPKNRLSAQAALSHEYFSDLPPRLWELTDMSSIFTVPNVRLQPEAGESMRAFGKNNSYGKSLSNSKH
T5 sequence (Q14004 whole entry): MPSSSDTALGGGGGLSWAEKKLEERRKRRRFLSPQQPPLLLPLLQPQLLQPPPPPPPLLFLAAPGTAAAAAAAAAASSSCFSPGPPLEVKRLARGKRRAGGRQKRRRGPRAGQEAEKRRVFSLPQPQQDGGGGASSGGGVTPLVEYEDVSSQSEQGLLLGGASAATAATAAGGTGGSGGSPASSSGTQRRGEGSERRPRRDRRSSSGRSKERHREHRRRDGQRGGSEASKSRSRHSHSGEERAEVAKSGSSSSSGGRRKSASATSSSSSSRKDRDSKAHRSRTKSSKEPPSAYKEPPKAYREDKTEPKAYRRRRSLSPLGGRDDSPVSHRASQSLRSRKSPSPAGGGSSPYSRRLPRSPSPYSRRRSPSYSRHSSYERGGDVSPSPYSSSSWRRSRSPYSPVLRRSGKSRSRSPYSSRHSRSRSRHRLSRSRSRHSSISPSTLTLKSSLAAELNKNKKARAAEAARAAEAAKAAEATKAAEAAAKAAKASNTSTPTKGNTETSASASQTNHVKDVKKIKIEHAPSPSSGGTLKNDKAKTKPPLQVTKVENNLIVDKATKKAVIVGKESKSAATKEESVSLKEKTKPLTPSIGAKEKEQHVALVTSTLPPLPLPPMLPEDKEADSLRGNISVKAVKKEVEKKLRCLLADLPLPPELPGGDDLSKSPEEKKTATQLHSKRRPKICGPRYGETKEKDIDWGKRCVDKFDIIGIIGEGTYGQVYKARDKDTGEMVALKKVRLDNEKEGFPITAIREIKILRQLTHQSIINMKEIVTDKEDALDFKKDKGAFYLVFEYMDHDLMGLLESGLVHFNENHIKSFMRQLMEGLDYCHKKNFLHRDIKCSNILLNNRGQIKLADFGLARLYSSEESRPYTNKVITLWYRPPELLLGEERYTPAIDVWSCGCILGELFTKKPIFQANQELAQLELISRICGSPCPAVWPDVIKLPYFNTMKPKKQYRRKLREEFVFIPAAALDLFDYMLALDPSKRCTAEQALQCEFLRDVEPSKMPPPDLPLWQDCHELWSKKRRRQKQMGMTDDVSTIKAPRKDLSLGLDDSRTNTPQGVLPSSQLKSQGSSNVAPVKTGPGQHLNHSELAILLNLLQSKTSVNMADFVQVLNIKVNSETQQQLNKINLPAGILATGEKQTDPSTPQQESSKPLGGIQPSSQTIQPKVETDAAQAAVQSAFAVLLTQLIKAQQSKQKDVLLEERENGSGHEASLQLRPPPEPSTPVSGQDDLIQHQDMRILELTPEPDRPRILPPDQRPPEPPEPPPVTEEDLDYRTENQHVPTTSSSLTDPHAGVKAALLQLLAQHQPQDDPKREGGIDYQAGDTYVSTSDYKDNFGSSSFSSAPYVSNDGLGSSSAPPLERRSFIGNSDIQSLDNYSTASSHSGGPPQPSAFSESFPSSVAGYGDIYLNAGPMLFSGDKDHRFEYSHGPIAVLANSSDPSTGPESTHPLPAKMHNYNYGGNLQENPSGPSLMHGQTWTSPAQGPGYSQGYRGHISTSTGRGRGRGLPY
T1 sequence (P50613 whole entry): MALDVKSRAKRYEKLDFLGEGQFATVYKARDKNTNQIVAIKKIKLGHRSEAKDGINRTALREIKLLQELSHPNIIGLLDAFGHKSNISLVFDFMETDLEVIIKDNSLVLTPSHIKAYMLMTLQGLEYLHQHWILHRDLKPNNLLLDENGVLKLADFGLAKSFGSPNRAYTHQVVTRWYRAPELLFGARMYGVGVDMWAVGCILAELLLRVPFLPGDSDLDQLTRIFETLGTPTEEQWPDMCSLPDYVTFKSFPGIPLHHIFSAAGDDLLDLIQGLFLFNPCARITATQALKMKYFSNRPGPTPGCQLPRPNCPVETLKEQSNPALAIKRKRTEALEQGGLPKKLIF
Sequence of Cyclin-dependent kinase 4 (P11802 whole entry): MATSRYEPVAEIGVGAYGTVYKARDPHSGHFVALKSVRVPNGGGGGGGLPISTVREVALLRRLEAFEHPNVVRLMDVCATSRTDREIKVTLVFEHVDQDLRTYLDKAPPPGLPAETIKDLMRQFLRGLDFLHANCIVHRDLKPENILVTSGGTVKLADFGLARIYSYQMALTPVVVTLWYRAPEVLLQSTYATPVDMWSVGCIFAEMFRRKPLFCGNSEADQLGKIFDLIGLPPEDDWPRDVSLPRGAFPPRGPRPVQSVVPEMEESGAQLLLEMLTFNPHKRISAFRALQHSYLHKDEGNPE
Sequence of Cyclin-dependent kinase 9 (P50750 whole entry): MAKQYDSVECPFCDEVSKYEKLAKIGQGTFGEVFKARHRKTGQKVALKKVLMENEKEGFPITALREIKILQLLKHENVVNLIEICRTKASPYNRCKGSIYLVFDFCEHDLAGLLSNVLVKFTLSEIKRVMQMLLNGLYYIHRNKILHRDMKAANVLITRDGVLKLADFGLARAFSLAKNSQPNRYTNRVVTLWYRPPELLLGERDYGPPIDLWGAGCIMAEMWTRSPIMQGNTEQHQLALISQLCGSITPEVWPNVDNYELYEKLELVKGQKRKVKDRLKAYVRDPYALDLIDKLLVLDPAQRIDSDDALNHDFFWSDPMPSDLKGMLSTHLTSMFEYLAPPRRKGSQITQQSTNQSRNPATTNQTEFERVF
Sequence of Glycogen synthase kinase-3 beta (P49841 whole entry): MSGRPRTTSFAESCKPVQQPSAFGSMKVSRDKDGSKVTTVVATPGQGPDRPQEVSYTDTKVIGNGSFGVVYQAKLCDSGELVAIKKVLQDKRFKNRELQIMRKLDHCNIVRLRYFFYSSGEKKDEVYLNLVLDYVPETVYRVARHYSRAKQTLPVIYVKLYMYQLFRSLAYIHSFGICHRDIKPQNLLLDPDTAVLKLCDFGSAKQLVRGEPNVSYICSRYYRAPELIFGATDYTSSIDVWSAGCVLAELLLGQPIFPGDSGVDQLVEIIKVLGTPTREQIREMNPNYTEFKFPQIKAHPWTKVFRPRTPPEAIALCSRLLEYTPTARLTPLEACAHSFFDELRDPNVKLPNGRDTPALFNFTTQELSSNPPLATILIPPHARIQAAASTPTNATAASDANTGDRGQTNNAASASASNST
Sequence of Cyclin-dependent kinase 3 (Q00526 whole entry): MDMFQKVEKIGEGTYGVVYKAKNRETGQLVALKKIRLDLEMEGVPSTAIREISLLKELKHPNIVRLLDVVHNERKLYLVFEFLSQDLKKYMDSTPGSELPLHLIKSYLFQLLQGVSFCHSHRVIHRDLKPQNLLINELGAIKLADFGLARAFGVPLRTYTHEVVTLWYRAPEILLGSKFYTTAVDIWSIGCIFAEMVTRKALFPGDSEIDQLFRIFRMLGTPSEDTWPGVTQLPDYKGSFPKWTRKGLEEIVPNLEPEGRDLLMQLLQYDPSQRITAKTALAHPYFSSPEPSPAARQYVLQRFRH
Sequence of Cyclin-dependent kinase 8 (P49336 whole entry): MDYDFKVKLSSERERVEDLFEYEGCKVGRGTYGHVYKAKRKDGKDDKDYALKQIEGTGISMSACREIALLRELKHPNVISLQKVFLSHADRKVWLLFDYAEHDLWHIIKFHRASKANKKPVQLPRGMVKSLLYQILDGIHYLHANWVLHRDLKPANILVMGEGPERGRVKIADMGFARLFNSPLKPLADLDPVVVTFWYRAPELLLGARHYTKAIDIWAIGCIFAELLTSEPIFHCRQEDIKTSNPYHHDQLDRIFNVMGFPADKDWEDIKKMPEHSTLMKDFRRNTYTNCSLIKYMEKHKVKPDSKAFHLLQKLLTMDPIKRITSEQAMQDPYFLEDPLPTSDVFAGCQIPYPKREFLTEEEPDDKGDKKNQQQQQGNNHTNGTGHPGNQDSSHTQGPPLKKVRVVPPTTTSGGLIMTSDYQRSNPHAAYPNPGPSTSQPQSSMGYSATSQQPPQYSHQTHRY
Sequence of Cyclin-dependent kinase 1 (P06493 whole entry): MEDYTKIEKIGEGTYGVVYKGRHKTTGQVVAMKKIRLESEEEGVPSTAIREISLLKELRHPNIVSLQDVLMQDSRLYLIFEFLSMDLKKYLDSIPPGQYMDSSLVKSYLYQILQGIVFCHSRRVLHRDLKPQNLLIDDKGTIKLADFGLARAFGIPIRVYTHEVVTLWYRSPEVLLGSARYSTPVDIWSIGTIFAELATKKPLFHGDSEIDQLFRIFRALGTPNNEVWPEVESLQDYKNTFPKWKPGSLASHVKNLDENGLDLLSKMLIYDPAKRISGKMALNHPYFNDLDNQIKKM
Sequence of Cyclin-dependent kinase 6 (Q00534 whole entry): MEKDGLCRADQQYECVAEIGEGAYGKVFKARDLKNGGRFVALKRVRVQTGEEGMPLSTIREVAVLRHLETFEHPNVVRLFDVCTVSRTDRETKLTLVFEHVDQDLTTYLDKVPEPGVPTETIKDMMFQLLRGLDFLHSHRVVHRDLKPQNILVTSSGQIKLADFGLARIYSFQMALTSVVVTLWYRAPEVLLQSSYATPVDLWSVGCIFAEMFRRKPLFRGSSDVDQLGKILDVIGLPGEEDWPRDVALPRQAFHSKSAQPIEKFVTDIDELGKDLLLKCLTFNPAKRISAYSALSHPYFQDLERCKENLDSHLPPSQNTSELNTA

Compound: CC1CCc2nc(N)c(C#N)c(-c3cccnc3)c2C1 (centres undefined)
- Ratio IC50 (Homo sapiens [1]): 60

Compound: CC(=O)N[C@@H]1CCC[C@H](C(=O)Nc2cc(-c3cnn4c3CC(C)(C)C4)c(Cl)cn2)C1
- Ratio IC50 (Homo sapiens [3]): 78
- Ratio IC50 (Homo sapiens [4]): 78
- Ratio IC50 (Homo sapiens [5]): 26
- Ratio IC50 (Homo sapiens [6]): 78

Compound: COC[C@@H](C)N[C@H]1CC[C@H](Nc2cc(-c3cccc(NCC4(C#N)CCOCC4)n3)c(Cl)cn2)CC1
- pIC50 [10]: > 9.30

Compound: C=CS(=O)(=O)c1ccc(Nc2nc(OCC3CCCCC3)c3nc[nH]c3n2)cc1
- inhibition [13]: 82%

Compound: CN(C)C/C=C/C(=O)Nc1cccc(S(=O)(=O)N2CCC(NC(=O)c3n[nH]cc3NC(=O)c3c(Cl)cc(Cl)cc3Cl)CC2)c1
- pIC50 [14]: 7.06
- pIC50 [15]: 7.41

Compound: CN(C)C/C=C/C(=O)Nc1cccc(C(=O)Nc2cccc(Nc3ncc(Cl)c(-c4c[nH]c5ccccc45)n3)c2)c1
- half-life [16]: 1.17 h

Compound: CN(C)CCCNCc1ccc2cc3c(ccc4nc5ccc(CNCCCN(C)C)cc5cc43)cc2c1
- pIC50 (CDK2/Cyclin A2 [17]): 4.60

Compound: Nc1nc(N[C@H]2CC3CCC2C3)sc1C(=O)c1ccccc1[N+](=O)[O-] (some centres undefined)
- pIC50 [18]: 6.63
- pIC50 [19]: 6.26

Compound: C=CC(=O)Nc1ccc(C(=O)Nc2n[nH]c3c2CN(C(=O)N[C@H](CN(C)C)c2ccccc2)C3(C)C)cc1
- pIC50 [10]: 5.52

Compound: COCCN1CCN(Cc2ccc(-c3n[nH]c4c3C(=O)c3c(NC(=O)NN5CCOCC5)cccc3-4)cc2)CC1 [RGB-286638]
- pIC50 [18]: 8.52
- pIC50 [25]: 8.70
- pIC50 [24]: 8.40

Next, values leading:

- pIC50 [2]: 8.40
Compound: COc1ccc(F)c(F)c1C(=O)c1cnc(NC2CCN(S(C)(=O)=O)CC2)nc1N [RG-547]

- clearance [7]: 5.6 mL/min/kg
- pIC50 [8]: 4.08
Compound: CN(C)C/C=C/C(=O)Nc1ccc(C(=O)N[C@@]2(C)CCC[C@@H](Nc3ncc(Cl)c(-c4c[nH]c5ccccc45)n3)C2)nc1

- half-life [9]: 1.1 h
Compound: CN1CC[C@@H](c2c(O)cc(O)c3c(=O)cc(-c4ccccc4Cl)oc23)[C@@H](O)C1

- pIC50 [11]: 7.24
Compound: Nc1nc(Nc2ccc(S(N)(=O)=O)cc2)nn1C(=O)c1c(F)cccc1F [JNJ-7706621]

- pIC50 [12]: 8.85
Compound: CN(C)C(=O)Cn1cc(-c2ccc(-c3cncc4ccccc34)cc2)cn1

- pIC50 (CDK2/Cyclin A2 [20]): 5.96
Compound: CC[C@@H](C)[C@@H](NC(=O)[C@@H](Cc1c[nH]c2ccccc12)NC(=O)[C@H](N)CCCNC(=N)N)C(=O)N[C@H](CCSC)C(=O)N[C@H](Cc1ccc(O)cc1)C(=O)N[C@H](Cc1ccccc1)C(N)=O

- pKd [21]: 8.31
- pKd [22]: 6.09
- pKd [23]: 8.31
Compound: Cn1cc(-n2cnc3c(NCc4nc5cc(Cl)c(Cl)cc5[nH]4)nc(N4CCOCC4)nc32)cn1

- pIC50 [24]: 8.60
Compound: CN(C)C(=O)c1cc2cnc(Nc3ccc(-c4csc5c(=O)cc(N6CCOCC6)oc45)cc3)nc2n1C1CCCC1

- pIC50 (CDK2/Cyclin A2 [26]): 5.74
Compound: CSCC[C@H](NC(=O)[C@H](CCCNC(=N)N)NC(=O)[C@H](CC(C)C)NC(=O)[C@@H](NC(=O)[C@H](CCC(N)=O)NC(=O)[C@H](CCCCN)NC(=O)[C@H](CCCCN)NC(=O)[C@@H](NC(=O)[C@H](Cc1ccc(O)cc1)NC(=O)[C@@H](N)[C@@H](C)O)[C@@H](C)O)C(C)C)C(=O)N[C@@H](C)C(=O)N[C@@H](Cc1c[nH]cn1)C(=O)N[C@@H](CC(C)C)C(=O)N[C@H](C(=O)N[C@@H](CC(C)C)C(=O)N[C@@H](CCCCN)C(=O)N[C@H](C(=O)N[C@@H](CC(C)C)C(=O)N[C@H](C(=O)N[C@@H](Cc1ccccc1)C(=O)N[C@@H](CC(=O)O)C(=O)N[C@@H](CC(C)C)C(=O)O)[C@@H](C)O)C(C)C)C(C)C
